Assays:
[1] = tested on: Streptococcus pneumoniae; conditions: 30 pneumococcal clinical isolates; earlier study; ref Jindal et al., 2015; cited from earlier work
Excerpt: Table 1 Sequences and physicochemical properties of the template and hybrid AMPs. | column: MIC^a || One of the advantageous alternatives to today’s antibiotics is antimicrobial peptides (AMPs) ([Deslouches et al., 2013]; [Sánchez-Vásquez et al., 2013]). AMPs are synthesized by almost all living beings as the first line of defense in their immune system against microbial infection. Many aspects favor AMPs over traditional antibiotics: a broad range of antimicrobial activity against pathogenic micro-organisms (including viruses, parasites, bacteria, and fungi), microbial pathogens are less efficient in developing resistance against AMPs, as killing take place in a short contact time and AMPs c ...

[2] = tested on: ICR (CD-1) mice; test: In vivo toxicity in mice (SC, IN, IP routes); design: Aspartate aminotransferase, AST / Alanine transaminase, ALT / Alkaline phosphatase, ALP / Creatinine / Urea / Total bilirubin: unit not given here; conditions: for Eosinophil / Erythrocytes, RBC / Hematocrit, HCT / Hemoglobin Hgb / Lymphocytes / Mean corpuscular haemoglobin concentration, MCHC / Mean corpuscular haemoglobin, MCH / Mean corpuscular volume, MCV / Monocytes / White blood cells, WBC / platelet Counts, PLT / Granulocytes / Alanine transaminase, ALT / Alkaline phosphatase, ALP / Aspartate aminotransferase, AST / Creatinine / Total bilirubin / Urea: 3 doses (1hr, 12hr, 24hr), RN7-IN9, RN7-IN6 10 mg/kg, day 7, mean±SD, 4 mice; for Alanine transaminase, ALT / Alkaline phosphatase, ALP / Aspartate aminotransferase, AST / Creatinine / Total bilirubin / Urea: serum
Experimental: In this study, 4-week old male, pathogen free ICR (CD-1) mice were purchased from InVivos (Lim Chu Kang, Singapore) and used to assess the in vivo toxicity and antibacterial efficacy of the novel peptides, as these animals are by far the most commonly used model for the study of pneumococcal disease ([Chiavolini, Pozzi & Ricci, 2008]). The mice were kept in ventilated polycarbonate cages (12 h light/dark cycle, 20 ± 2 °C and 55% relative humidity). All mice were familiarized for seven days before any experimental procedure and were given unlimited pellets and water ad libitum. All animal experimentations were conducted according to the guidelines approved by Faculty of Medicine Institutional Animal Care and Use Committee (FOM IACUC), University of Malaya (ethics Reference no. : 2013-07-15/MMBTR/SDS).
In order to evaluate the possible toxic effects correlated to peptides administered in mice, four hybrid peptides RN7-IN10, RN7-IN9, RN7-IN8 and RN7-IN6 were chosen for in vivo toxicity assessment, due to their promising in vitro antibacterial activity ([Jindal et al., 2015]). Mice were separated into four groups (each with four mice) and were injected with respective peptides at 1 h, 12 h, and 24 h (three-dose regimen) via IP, SC, and IN administration routes. The hybrid peptides were first administered at high doses (100 mg/kg for IP route, 100 mg/kg for SC routes and 20 mg/kg for IN route). Any abnormal behavior was recorded and survival of mice was noted as well. In case adverse effects such as high physical stress, severe lethargy, physical inactiveness, and/or death were detected, lower graded doses were given. All the administered mice were monitored for seven days or until death occurred. At day seven post administration, all animals were sacrificed and blood and organs were collected. Untreated mice were used as a control group.
Mice used to evaluate the in vivo toxicity and antibacterial activity of the hybrid peptides using the subcutaneous (SC) and intranasal (IN) administration routes, were anesthetized using a combination of a standard dose of xylazine (ilium xylazil-20, 10 mg/kg) and ketamine (Narketan®-10, 100 mg/kg) through intraperitoneal (IP) injection. After seven days of treatment, the in vivo toxicity and antibacterial efficacy experiments were ended and the surviving mice were anesthetized. Blood samples for Hematological and biochemical analysis were collected via cardiac puncture using a 25G syringe (BD bioscience, San Jose, CA, USA). Whole blood for heamatological analysis was collected in 500 µl dipotassium EDTA microtainer tubes (BD Bioscience, USA). About 500 µl of blood collected an eppedorff tube and centrifuged at 8000 rpm for 5 min and then the serum was transferred into a new 1.5 ml tube for biochemistry analysis. The mice were then euthanized by cervical dislocation, dissected and the following organs were collected for histopathology evaluation: lung, kidney, brain, liver and spleen.
For whole blood analysis, the parameters were number of red cells (RBC), number of white cells (WBC), lymphocytes, monocytes, eosinophil, granulocytes, haemoglobin (Hgb), mean corpuscular volume (MCV), hematocrit (HCT), platelet Counts (PLT), Mean corpuscular haemoglobin (MCH) and corpuscular haemoglobin concentration (MCHC). For biochemistry analysis, the parameters were alanine transaminase (ALT), creatinine, alkaline phosphatase (ALP), aspartate aminotransferase (AST), total bilirubin and urea.
The following organs were collected from all the dissected mice: lung, kidney, brain, spleen, and liver. All tissues were fixed in 10% (v/v) buffered formalin and processed for paraffin embedding. Hematoxylin–eosin (HE) was used to stain the histological sections at the histopathology laboratory, Veterinary Laboratory Service Unit, University Putra Malaysia (UPM).

[3] = IN, head doses: RN7-IN10, RN7-IN8 20 mg/kg
[4] = SC, head doses: RN7-IN10, RN7-IN8 20 mg/kg

FLGGLIKWWPWRR-NH2 [RN7-IN6, hybrid peptide of ranalexin (residues 1-7) and indolicidin (residues 8-13)]
MIC, minimum inhibitory concentration [1]: 7.81 to 15.62 µg/mL
Eosinophil [2, 3]: 3.5±0.9%
Erythrocytes, RBC [2, 3]: 9.12±0.25 10^6/mm^3
Hematocrit, HCT [2, 3]: 47.43±0.61%
Hemoglobin Hgb [2, 3]: 15 ± 0.28 g/dL
Lymphocytes [2, 3]: 47.67±12.2%
Mean corpuscular haemoglobin concentration, MCHC [2, 3]: 31.7 ± 0.21 g/dL
Mean corpuscular haemoglobin, MCH [2, 3]: 16.5 ± 0.17 pg
Mean corpuscular volume, MCV [2, 3]: 52.66±1.24 µm^3
Monocytes [2, 3]: 2.7±0.57%
White blood cells, WBC [2, 3]: 3.6±0.35 10^3/mm^3
platelet Counts, PLT [2, 3]: 597.66±123.23 10^3/mm^3
Eosinophil ([2]; IP, RN7-IN10, RN7-IN8 20 mg/kg): 3.22±1.47%
Erythrocytes, RBC ([2]; IP, RN7-IN10, RN7-IN8 20 mg/kg): 8.71±0.44 10^6/mm^3
Granulocytes ([2]; IP, RN7-IN10, RN7-IN8 20 mg/kg): 57.87±11.66%
Hematocrit, HCT ([2]; IP, RN7-IN10, RN7-IN8 20 mg/kg): 44.97±1.75%
Hemoglobin Hgb ([2]; IP, RN7-IN10, RN7-IN8 20 mg/kg): 15.02 ± 0.59 g/dL
Lymphocytes ([2]; IP, RN7-IN10, RN7-IN8 20 mg/kg): 54.6±3.8%
Mean corpuscular haemoglobin concentration, MCHC ([2]; IP, RN7-IN10, RN7-IN8 20 mg/kg): 33.42 ± 0.62 g/dL
Mean corpuscular haemoglobin, MCH ([2]; IP, RN7-IN10, RN7-IN8 20 mg/kg): 16.67 ± 1.07 pg
Mean corpuscular volume, MCV ([2]; IP, RN7-IN10, RN7-IN8 20 mg/kg): 50.5±1.29 µm^3
Monocytes ([2]; IP, RN7-IN10, RN7-IN8 20 mg/kg): 2.53±0.33%
White blood cells, WBC ([2]; IP, RN7-IN10, RN7-IN8 20 mg/kg): 4.1±0.72 10^3/mm^3
platelet Counts, PLT ([2]; IP, RN7-IN10, RN7-IN8 20 mg/kg): 540.75±107.41 10^3/mm^3
maximum IP dose at which no signs of stress or abnormal behavior were evident (non-toxic dose) ([2]; IP, doses at 1 h, 12 h, 24 h, no death up to seven days): 10 mg/kg
Eosinophil [2, 4]: 2.7±0.71%
Erythrocytes, RBC [2, 4]: 9.59±0.92 10^6/mm^3
Granulocytes [2, 4]: 51.12±5.16%
Hematocrit, HCT [2, 4]: 49.2±4.43%
Hemoglobin Hgb [2, 4]: 16.17 ± 1.44 g/dL
Lymphocytes [2, 4]: 51.85±3.3%
Mean corpuscular haemoglobin concentration, MCHC [2, 4]: 32.87 ± 0.42 g/dL
Mean corpuscular haemoglobin, MCH [2, 4]: 16.85 ± 0.3 pg
Mean corpuscular volume, MCV [2, 4]: 50±1.82 µm^3
Monocytes [2, 4]: 2.8±0.25%
White blood cells, WBC [2, 4]: 3.86±0.34 10^3/mm^3
Alanine transaminase, ALT [2, 3]: 43.2±7.56
Alkaline phosphatase, ALP [2, 3]: 138.33±5.5
Aspartate aminotransferase, AST [2, 3]: 140±7.2
Creatinine [2, 3]: 40.15±3.6
Total bilirubin [2, 3]: 1.95±0.08
Urea [2, 3]: 10.14±1.52
Alkaline phosphatase, ALP ([2]; IP, RN7-IN10, RN7-IN8 20 mg/kg): 114.97±24.9
Aspartate aminotransferase, AST ([2]; IP, RN7-IN10, RN7-IN8 20 mg/kg): 176±19.31
Creatinine ([2]; IP, RN7-IN10, RN7-IN8 20 mg/kg): 41.47±4.2
Total bilirubin ([2]; IP, RN7-IN10, RN7-IN8 20 mg/kg): 2.1±0.1
Urea ([2]; IP, RN7-IN10, RN7-IN8 20 mg/kg): 8.97±1.17
Alanine transaminase, ALT [2, 4]: 43.32±10.3
Alkaline phosphatase, ALP [2, 4]: 106.56±20.1
Aspartate aminotransferase, AST [2, 4]: 158.25±18.9
Creatinine [2, 4]: 34.89±0.25
Total bilirubin [2, 4]: 2.03±0.14
Urea [2, 4]: 9.07±2.02

Source: paper PMC5632533, “Mechanisms of action and in vivo antibacterial efficacy assessment of five novel hybrid peptides derived from Indolicidin and Ranalexin against Streptococcus pneumoniae” (PeerJ, 2017)
